Results taken from ChEMBL document CHEMBL3352489, “6-Hydroxyquinolinium salts differing in the length of alkyl side-chain: synthesis and antimicrobial activity” (Bioorg Med Chem Lett, 2014).

What was measured:
[1] = tested on: Klebsiella pneumoniae; assay: microbe, parasite or virus in culture; format: functional; conditions: D 11750/08, 24 h
Description: Antibacterial activity against Klebsiella pneumoniae D 11750/08 after 24 hrs by microdilution broth method

[2] = tested on: Staphylococcus aureus; assay: microbe, parasite or virus in culture; format: functional; conditions: CCM 4516/08, 24 h
Description: Antibacterial activity against Staphylococcus aureus CCM 4516/08 after 24 hrs by microdilution broth method

[3] = tested on: Candida albicans; assay: Fungicidal activity against Candida albicans ATCC 44859 after 48 hrs by modified standard CSLI M27-A2 method; format: functional; conditions: ATCC 44859, 48 h
[4] = tested on: Lichtheimia corymbifera; assay: microbe, parasite or virus in culture; format: functional; conditions: Lichtheimia corymbifera, 272, 48 h
Description: Antifungal activity against Absidia corymbifera 272 after 48 hrs by modified standard CSLI M27-A2 method

[5] = tested on: Trichophyton mentagrophytes; assay: microbe, parasite or virus in culture; format: functional; conditions: Trichophyton mentagrophytes, 445, 72 h
Description: Antifungal activity against Trichophyton mentagrophytes 445 after 72 hrs by modified standard CSLI M27-A2 method

[6] = tested on: Pseudomonas aeruginosa; assay: microbe, parasite or virus in culture; format: functional; conditions: CCM 1961, 120 h
Description: Antibacterial activity against Pseudomonas aeruginosa CCM 1961 after 120 hrs by microdilution broth method

[7] = tested on: Escherichia coli; assay: microbe, parasite or virus in culture; format: functional; conditions: CCM 4517, 24 h
Description: Antibacterial activity against Escherichia coli CCM 4517 after 24 hrs by microdilution broth method

[8] = tested on: Candida tropicalis; assay: microbe, parasite or virus in culture; format: functional; conditions: Candida tropicalis, 156, 24 h
Description: Antifungal activity against Candida tropicalis 156 after 24 hrs by modified standard CSLI M27-A2 method

[9] = tested on: Nakaseomyces glabratus; assay: Antifungal activity against Candida glabrata 20/I after 48 hrs by modified standard CSLI M27-A2 method; format: functional
[10] = tested on: Pseudomonas aeruginosa; assay: Bactericidal activity against Pseudomonas aeruginosa CCM 1961 after 120 hrs by microdilution broth method; format: functional; conditions: CCM 1961, 120 h, read-out: MBC>99.9
[11] = tested on: Candida tropicalis; assay: Fungicidal activity against Candida tropicalis 156 after 48 hrs by modified standard CSLI M27-A2 method; format: functional; conditions: Candida tropicalis, 156, 48 h
[12] = tested on: Escherichia coli; assay: Bactericidal activity against Escherichia coli CCM 4517 after 48 hrs by microdilution broth method; format: functional; conditions: CCM 4517, 48 h, read-out: MBC>99.9
[13] = tested on: Candida albicans; assay: microbe, parasite or virus in culture; format: functional; conditions: ATCC 44859, 48 h
Description: Antifungal activity against Candida albicans ATCC 44859 after 48 hrs by modified standard CSLI M27-A2 method

[14] = tested on: Pichia kudriavzevii; assay: Antifungal activity against Candida krusei E28 after 48 hrs by modified standard CSLI M27-A2 method; format: functional; conditions: E28, 48 h
[15] = tested on: Pichia kudriavzevii; assay: Fungicidal activity against Candida krusei E28 after 48 hrs by modified standard CSLI M27-A2 method; format: functional; conditions: E28, 48 h
[16] = tested on: Pichia kudriavzevii; assay: Antifungal activity against Candida krusei E28 after 24 hrs by modified standard CSLI M27-A2 method; format: functional; conditions: E28, 24 h
[17] = tested on: Enterococcus sp.; assay: microbe, parasite or virus in culture; format: functional; conditions: J 14365/08, 48 h
Description: Antibacterial activity against Enterococcus sp. J 14365/08 after 48 hrs by microdilution broth method

[18] = tested on: Enterococcus sp.; assay: Bactericidal activity against Enterococcus sp. J 14365/08 after 48 hrs by microdilution broth method; format: functional; conditions: J 14365/08, 48 h, read-out: MBC>99.9
[19] = tested on: Trichosporon asahii; assay: microbe, parasite or virus in culture; format: functional; conditions: Trichosporon asahii, 1188, 48 h
Description: Antifungal activity against Trichosporon asahii 1188 after 48 hrs by modified standard CSLI M27-A2 method

[20] = Cytotoxicity against CHOK1 cells after 24 hrs by MTT assay; format: ADME, cell-based; conditions: Cricetulus griseus, CHO-K1, 24 h
[21] = tested on: Lichtheimia corymbifera; assay: microbe, parasite or virus in culture; format: functional; conditions: Lichtheimia corymbifera, 272, 24 h
Description: Antifungal activity against Absidia corymbifera 272 after 24 hrs by modified standard CSLI M27-A2 method

[22] = tested on: Staphylococcus aureus; assay: microbe, parasite or virus in culture; format: functional; conditions: H 5996/08, 48 h
Description: Antibacterial activity against Staphylococcus aureus H 5996/08 after 48 hrs by microdilution broth method

[23] = tested on: Candida tropicalis; assay: microbe, parasite or virus in culture; format: functional; conditions: Candida tropicalis, 156, 48 h
Description: Antifungal activity against Candida tropicalis 156 after 48 hrs by modified standard CSLI M27-A2 method

[24] = tested on: Klebsiella pneumoniae; assay: microbe, parasite or virus in culture; format: functional; conditions: J 14368/08, 48 h
Description: Antibacterial activity against Klebsiella pneumoniae J 14368/08 after 48 hrs by microdilution broth method

[25] = tested on: Pseudomonas aeruginosa; assay: microbe, parasite or virus in culture; format: functional; conditions: CCM 1961, 72 h
Description: Antibacterial activity against Pseudomonas aeruginosa CCM 1961 after 72 hrs by microdilution broth method

[26] = tested on: Trichophyton mentagrophytes; assay: microbe, parasite or virus in culture; format: functional; conditions: Trichophyton mentagrophytes, 445, 120 h
Description: Antifungal activity against Trichophyton mentagrophytes 445 after 120 hrs by modified standard CSLI M27-A2 method

[27] = tested on: Staphylococcus aureus; assay: microbe, parasite or virus in culture; format: functional; conditions: CCM 4516/08, 48 h
Description: Antibacterial activity against Staphylococcus aureus CCM 4516/08 after 48 hrs by microdilution broth method

[28] = tested on: Staphylococcus epidermidis; assay: microbe, parasite or virus in culture; format: functional; conditions: H 6966/08, 24 h
Description: Antibacterial activity against Staphylococcus epidermidis H 6966/08 after 24 hrs by microdilution broth method

[29] = tested on: Trichosporon asahii; assay: microbe, parasite or virus in culture; format: functional; conditions: Trichosporon asahii, 1188, 24 h
Description: Antifungal activity against Trichosporon asahii 1188 after 24 hrs by modified standard CSLI M27-A2 method

[30] = tested on: Klebsiella pneumoniae; assay: microbe, parasite or virus in culture; format: functional; conditions: D 11750/08, 48 h
Description: Antibacterial activity against Klebsiella pneumoniae D 11750/08 after 48 hrs by microdilution broth method

[31] = tested on: Staphylococcus aureus; assay: Bactericidal activity against Staphylococcus aureus CCM 4516/08 after 48 hrs by microdilution broth method; format: functional; conditions: CCM 4516/08, 48 h, read-out: MBC>99.9
[32] = tested on: Staphylococcus epidermidis; assay: microbe, parasite or virus in culture; format: functional; conditions: H 6966/08, 48 h
Description: Antibacterial activity against Staphylococcus epidermidis H 6966/08 after 48 hrs by microdilution broth method

[33] = tested on: Staphylococcus aureus; assay: microbe, parasite or virus in culture; format: functional; conditions: H 5996/08, 24 h
Description: Antibacterial activity against Staphylococcus aureus H 5996/08 after 24 hrs by microdilution broth method

[34] = tested on: Nakaseomyces glabratus; assay: Antifungal activity against Candida glabrata 20/I after 24 hrs by modified standard CSLI M27-A2 method; format: functional
[35] = tested on: Candida albicans; assay: microbe, parasite or virus in culture; format: functional; conditions: ATCC 44859, 24 h
Description: Antifungal activity against Candida albicans ATCC 44859 after 24 hrs by modified standard CSLI M27-A2 method

[36] = tested on: Klebsiella pneumoniae; assay: microbe, parasite or virus in culture; format: functional; conditions: J 14368/08, 24 h
Description: Antibacterial activity against Klebsiella pneumoniae J 14368/08 after 24 hrs by microdilution broth method

[37] = tested on: Aspergillus fumigatus; assay: microbe, parasite or virus in culture; format: functional; conditions: Aspergillus fumigatus, 231, 48 h
Description: Antifungal activity against Aspergillus fumigatus 231 after 48 hrs by modified standard CSLI M27-A2 method

[38] = tested on: Escherichia coli; assay: microbe, parasite or virus in culture; format: functional; conditions: CCM 4517, 48 h
Description: Antibacterial activity against Escherichia coli CCM 4517 after 48 hrs by microdilution broth method

[39] = tested on: Lichtheimia corymbifera; assay: Fungicidal activity against Absidia corymbifera 272 after 48 hrs by modified standard CSLI M27-A2 method; format: functional; conditions: Lichtheimia corymbifera, 272, 48 h
[40] = tested on: Trichosporon asahii; assay: Fungicidal activity against Trichosporon asahii 1188 after 48 hrs by modified standard CSLI M27-A2 method; format: functional; conditions: Trichosporon asahii, 1188, 48 h
[41] = tested on: Klebsiella pneumoniae; assay: Bactericidal activity against Klebsiella pneumoniae D 11750/08 after 24 hrs by microdilution broth method; format: functional; conditions: D 11750/08, 24 h, read-out: MBC>99.9
[42] = tested on: Aspergillus fumigatus; assay: microbe, parasite or virus in culture; format: functional; conditions: Aspergillus fumigatus, 231, 24 h
Description: Antifungal activity against Aspergillus fumigatus 231 after 24 hrs by modified standard CSLI M27-A2 method

[43] = tested on: Enterococcus sp.; assay: microbe, parasite or virus in culture; format: functional; conditions: J 14365/08, 24 h
Description: Antibacterial activity against Enterococcus sp. J 14365/08 after 24 hrs by microdilution broth method

[44] = tested on: Nakaseomyces glabratus; assay: Fungicidal activity against Candida glabrata 20/I after 48 hrs by modified standard CSLI M27-A2 method; format: functional
[45] = tested on: Trichophyton mentagrophytes; assay: Fungicidal activity against Trichophyton mentagrophytes 445 after 120 hrs by modified standard CSLI M27-A2 method; format: functional; conditions: Trichophyton mentagrophytes, 445, 120 h
[46] = tested on: Staphylococcus aureus; assay: Bactericidal activity against Staphylococcus aureus H 5996/08 after 48 hrs by microdilution broth method; format: functional; conditions: H 5996/08, 48 h, read-out: MBC>99.9
[47] = tested on: Aspergillus fumigatus; assay: Fungicidal activity against Aspergillus fumigatus 231 after 48 hrs by modified standard CSLI M27-A2 method; format: functional; conditions: Aspergillus fumigatus, 231, 48 h
[48] = tested on: Klebsiella pneumoniae; assay: Bactericidal activity against Klebsiella pneumoniae J 14368/08 after 48 hrs by microdilution broth method; format: functional; conditions: J 14368/08, 48 h, read-out: MBC>99.9
[49] = tested on: Staphylococcus epidermidis; assay: Bactericidal activity against Staphylococcus epidermidis H 6966/08 after 48 hrs by microdilution broth method; format: functional; conditions: H 6966/08, 48 h, read-out: MBC>99.9

CCCCCCCCCCCCCC[N+](C)(C)Cc1ccccc1
MIC95 [1]: 7.81 µM | MIC95 [2]: 0.98 µM | MFC [3]: 125 µM | MIC [4]: 31.2 µM | MIC [5]: 15.6 µM | MIC95 [6]: 31.2 µM | MIC95 [7]: 7.81 µM | MIC [8]: 3.91 µM | MIC [9]: 7.81 µM | MBC [10]: 62.5 µM | MFC [11]: 125 µM | MBC [12]: 7.81 µM | MIC [13]: 7.81 µM | MIC [14]: 3.91 µM | MFC [15]: 125 µM | MIC [16]: 3.91 µM | MIC95 [17]: 1.95 µM | MBC [18]: 7.81 µM | MIC [19]: 31.2 µM | IC50 [20]: 24 µM | MIC [21]: 31.2 µM | MIC95 [22]: 1.95 µM | MIC [23]: 3.91 µM | MIC95 [24]: 7.81 µM | MIC95 [25]: 15.6 µM | MIC [26]: 15.6 µM | MIC95 [27]: 0.98 µM | MIC95 [28]: 0.98 µM | MIC [29]: 31.2 µM | MIC95 [30]: 7.81 µM | MBC [31]: 3.91 µM | MIC95 [32]: 0.98 µM | MIC95 [33]: 1.95 µM | MIC [34]: 7.81 µM | MIC [35]: 7.81 µM | MIC95 [36]: 7.81 µM | MIC [37]: 15.6 µM | MIC95 [38]: 7.81 µM | MFC [39]: 125 µM | MFC [40]: 125 µM | MBC [41]: 7.81 µM | MIC [42]: 7.81 µM | MIC95 [43]: 1.95 µM | MFC [44]: 125 µM | MFC [45]: 15.6 µM | MBC [46]: 3.91 µM | MFC [47]: 125 µM | MBC [48]: 7.81 µM | MBC [49]: 0.98 µM

CCCCCCCCCCCC[N+](C)(C)Cc1ccccc1
MIC95 [1]: 0.49 µM | MIC95 [2]: 0.49 µM | MFC [3]: 0.98 µM | MIC [4]: 7.81 µM | MIC [5]: 0.98 µM | MIC95 [6]: 3.91 µM | MIC95 [7]: 0.49 µM | MIC [8]: 0.49 µM | MIC [9]: 0.49 µM | MBC [10]: 7.81 µM | MFC [11]: 0.98 µM | MBC [12]: 1.95 µM | MIC [13]: 0.49 µM | MIC [14]: 0.49 µM | MFC [15]: 0.49 µM | MIC [16]: 0.49 µM | MIC95 [17]: 0.98 µM | MBC [18]: 0.98 µM | MIC [19]: 1.95 µM | IC50 [20]: 29 µM | MIC [21]: 7.81 µM | MIC95 [22]: 0.49 µM | MIC [23]: 0.49 µM | MIC95 [24]: 0.98 µM | MIC95 [25]: 3.91 µM | MIC [26]: 0.98 µM | MIC95 [27]: 1.95 µM | MIC95 [28]: 0.49 µM | MIC [29]: 0.49 µM | MIC95 [30]: 0.49 µM | MBC [31]: 1.95 µM | MIC95 [32]: 0.49 µM | MIC95 [33]: 0.49 µM | MIC [34]: 0.49 µM | MIC [35]: 0.49 µM | MIC95 [36]: 0.98 µM | MIC [37]: 3.91 µM | MIC95 [38]: 1.95 µM | MFC [39]: 7.81 µM | MFC [40]: 1.95 µM | MBC [41]: 0.49 µM | MIC [42]: 0.98 µM | MIC95 [43]: 0.49 µM | MFC [44]: 0.49 µM | MFC [45]: 1.95 µM | MBC [46]: 0.98 µM | MFC [47]: 3.91 µM | MBC [48]: 0.98 µM | MBC [49]: 0.49 µM
